Consider two substances from US20030199671A1, “Binding molecules for Fc-region polypeptides” (priority 2001, published 2003).

Experiment [1] concerns goat IgG. Description: Mini-chromatography column binding (dynamic conditions). The note with it: 250 μg target, 170 cm/hr. The procedure: (§1) Thus, 250 μg of target (hIgG1, hIgG2, hIgG3, hIgG4, goat IgG and bovine IgG) at 0.250 mg/ml in PBST, pH 7.2 or TBST, pH 7.3 was loaded onto a 350 μl column (3×50 mm) run at 0.200 ml/min. flowrate (170 cm/hr). Flowthrough, elution and cleaning fractions were collected and assayed for total protein recovery by size-exclusion HPLC. Percentage mass balance was also determined to be 90-100% on average.

Experiment [2] concerns bovine IgG. Described as above. The note with it: 250 μg target, 170 cm/hr. The procedure:
as §1

Experiment [3] concerns polyclonal human IgG. In words: DX253 column re-use: total dynamic binding capacity. The procedure: (§2) DX253 peptide was immobilized onto NHS-activated 4 Fast Flow to a ligand density of 2.9 μmole/ml as determined by quantitative amino acid analysis. This affinity resin was packed into a 4.6 mm×6 cm (internal diam.×length, 1.0 ml bed volume) PEEK column (Isolation Technologies, Inc., 5050IP-08046-006-20).
To establish total dynamic binding capacity, polyclonal human IgG (ICN, 55908) was prepared in PBS, pH 7.2 containing 0.05% NaN3 at 2.5 mg/ml. A total of 75 mg (30 ml) was loaded at 0.21 ml/minute (75 cm/hr) to capacity (until the absorbance at 280 nm of the load was equivalent to that of the column flowthrough). Fractions were collected across the entire run. Unbound IgG was washed to baseline at 0.42 ml/minute (150 cm/hour) with PBS, pH 7.2. Bound IgG was eluted with 0.1M citrate, pH 3.0 buffer and immediately neutralized with minimal addition of 1M HEPES, pH 9.0 buffer to ˜pH 7.0. […] All post-load wash, elution and cleaning steps were performed at a flow rate of 0.42 ml/minute (150 cm/hour). Total mg IgG bound was determined by measuring the absorbance at 280 nm of the elution fraction calculated using an extinction coefficicent of 1.4. Initial (T=0, prior to initiating column cycling) total dynamic capacity measured 19.8 mg human IgG per ml affinity resin. […] Mass balance recovery for these 5 total capacity determinations averaged 98%. […] The column retained approximately 90% relative performance with respect to total dynamic capacity after 95 cycles.

The target of experiment [4] is T1, human IgG1 (Homo sapiens, UniProt P01857).
T1 construct: all human subtypes derived from myeloma patients; purchased Calbiochem 400120; host or cells: myeloma patients
T1 sequence (P01857 1-330 isoform P01857-1): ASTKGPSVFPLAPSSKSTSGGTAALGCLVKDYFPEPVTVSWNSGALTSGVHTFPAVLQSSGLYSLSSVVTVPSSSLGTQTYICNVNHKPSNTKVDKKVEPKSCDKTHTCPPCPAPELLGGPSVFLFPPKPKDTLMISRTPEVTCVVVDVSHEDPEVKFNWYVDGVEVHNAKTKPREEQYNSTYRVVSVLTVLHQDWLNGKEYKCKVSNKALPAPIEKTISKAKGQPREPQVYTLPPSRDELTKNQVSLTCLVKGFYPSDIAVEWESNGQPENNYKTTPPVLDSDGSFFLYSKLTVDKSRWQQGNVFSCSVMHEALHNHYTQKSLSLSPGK
In words: Column capture out of tobacco extract. Format: binding. The settings on record: from tobacco extract, size exclusion HPLC. The procedure:
The ability of affinity media based on DX253 to capture human Fc and human IgG1 out of tobacco extract was evaluated in separate experiments. The tobacco extract used was a representative concentration blank lot (CropTech, lot NV100-136). Human Fc or IgG1 was spiked into the tobacco extract at 50 μg/ml. 100 μg (2 ml) was loaded onto a 350 μl column packed the DX253 media at 200 μl/min. (170 cm/hr.). Prior to loading, the column had been equilibrated with 50 mM Tris buffer containing 150 mM NaCl and 0.01% Tween 20, pH 7.3 (TBST, pH 7.3). After loading, the column was washed with 50 mM Tris buffer containing 1M NaCl, pH 7.3 followed by elution with 30 mM H3PO4, 150 mM NaCl, pH 2.0. The column was then cleaned with 0.1 M CAPS, pH 11.5 and separately with 30% isopropanol, 5% acetic acid in water, ˜pH 2.7. Collected fractions were neutralized immediately with 2M Tris, pH 8, prior to analysis by size exclusion HPLC.
(In general: In gel filtration, larger molecules generally elute earlier.)

The test system of experiment [5] is human IgG. In words: DX253 column cycling with IgG spiked cell culture media. The procedure: as §2
Human IgG was spiked into fresh cell culture media (DMEM) containing 10% fetal bovine serum (ultra low) to 0.5 mg/ml. 2 ml (1.0 mg IgG) was loaded onto the column which was pre-equilibrated with PBS, pH 7.2. Loading was performed at 0.21 ml/minute (75 cm/hour) and all subsequent steps (wash, elution and cleaning) were performed at 0.42 ml/minute (150 cm/hour). Unbound sample was washed to baseline with PBS, pH 7.2, followed by elution with 0.1M citrate, pH 3.0, wash with PBS, pH 7.2, cleaning with 3M guanidine-HCl, 20 mM phosphate, pH 7.2 and re-equilibration back into PBS, pH 7.2. A total of 19 series of 5 cycles each (95 cycles total) were run. […] This procedure was used for cycles 1-25, 27-65, 67-85, and 87-95.

For the substance “Prot. A: immobilized recombinant Protein A (RepliGen Corp., product no. IPA-400), positive control [reference compound]”, the “Binding efficiency, goat IgG” value in experiment [1] was “moderate”. Further, in experiment [2], the “Binding efficiency, bovine IgG” value is reported as “high”.
Regarding “Ac-GDRRACSRDWSGALVWCAGHEPGPEGGGK-NH2 (not fully specified (bridges); printed as Ac-GDRRACSRDWSGALVWCAGHEPGPEGGGK-NH2; cysteine pairing not given here) [DX253]”, in experiment [3] (T=0, ligand density 2.9 μmole/ml), the “Initial total dynamic capacity” value was 19.8 mg human IgG per ml affinity resin. Also, the “% Relative Performance (total capacity vs T=0, 19.8 mg/ml)” value in experiment [3] (Total Capacity Cycle Run No. 0) is recorded as 100%; in experiment [3] (Total Capacity Cycle Run No. 26), 93.9%; in experiment [3] (Total Capacity Cycle Run No. 66), 85.9%; in experiment [3] (Total Capacity Cycle Run No. 86) it was 91.4%; in experiment [3] (Total Capacity Cycle Run No. 96), 87.9%. Moreover, the “Relative performance with respect to total dynamic capacity” value in experiment [3] (after 95 cycles) is reported as “approximately 90%”. Also, the “% purity monomeric protein, IgG1” value in experiment [4] stood at 89%. Moreover, the “% Relative Performance (elution peak area vs cycle 1)” value stood at 100% in experiment [5] (Cycling Run No. 1, cycling run 1); 97.6% in experiment [5] (Cycling Run No. 10, cycling run 10); 97.9% in experiment [5] (Cycling Run No. 20, cycling run 20); 102.3% in experiment [5] (Cycling Run No. 30, cycling run 30); 103.1% in experiment [5] (Cycling Run No. 40, cycling run 40); 102.0% in experiment [5] (Cycling Run No. 51, cycling run 51). For the same substance, the “% Relative Performance (elution peak area vs cycle 1)” value in experiment [5] (Cycling Run No. 60, cycling run 60) amounted to 103.1%; in experiment [5] (Cycling Run No. 70, cycling run 70), 102.6%; in experiment [5] (Cycling Run No. 81, cycling run 81) it was 102.1%; in experiment [5] (Cycling Run No. 90, cycling run 90) it was 101.8%.
